One assay deals with T1, Neutrophil elastase (Homo sapiens, UniProt P08246).
T1 sequence (P08246 whole entry): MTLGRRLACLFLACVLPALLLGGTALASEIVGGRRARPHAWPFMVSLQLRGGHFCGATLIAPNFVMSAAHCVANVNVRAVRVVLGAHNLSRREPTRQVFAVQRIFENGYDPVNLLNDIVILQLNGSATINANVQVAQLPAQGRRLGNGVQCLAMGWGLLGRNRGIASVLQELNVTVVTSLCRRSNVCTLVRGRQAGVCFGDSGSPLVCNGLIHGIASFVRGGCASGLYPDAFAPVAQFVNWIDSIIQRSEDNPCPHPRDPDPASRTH
Description: In vitro inhibition of the human neutrophil elastase-catalyzed hydrolysis of the synthetic substrate Suc-Ala-Pro-Ala-MCA.

Assay [1] has as its system Cricetinae gen. sp. In words: The compound was evaluated for its ability to inhibit the human neutrophil elastase-induced lung hemorrhage in hamster by intravenous bolus administration of 100 mg/Kg dose. It is filed as functional, Cricetulus griseus.
The test system of assay [2] is Cricetinae gen. sp. In words: The compound was evaluated for its ability to inhibit the human neutrophil elastase-induced lung hemorrhage in hamster by intravenous bolus administration of 30 mg/kg dose. The class given is functional, Cricetulus griseus.
The test system of assay [3] is Cricetinae gen. sp. In words: The compound was evaluated for its ability to inhibit the human neutrophil elastase-induced lung hemorrhage in hamster by intravenous bolus administration of 10 mg/Kg dose. It is filed as functional, Cricetulus griseus.
The test system of assay [4] is Cricetinae gen. sp. Description: The compound was evaluated for its ability to inhibit the human neutrophil elastase-induced lung hemorrhage in hamster by intravenous bolus administration of 30 mg/Kg dose. The class given is functional, Cricetulus griseus.
The test system of assay [5] is Cricetinae gen. sp. Description: The compound was evaluated for its ability to inhibit the HNE-induced lung hemorrhage in hamster by intravenous bolus administration of 10 mg/Kg dose. The class given is functional, Cricetulus griseus.
The test system of assay [6] is Cricetinae gen. sp. Description: The compound was evaluated for its ability to inhibit the human neutrophil elastase-induced lung hemorrhage in hamster by intravenous bolus administration of 10 mg/kg dose. It is filed as functional, Cricetulus griseus.

The structures appear in SMILES notation. A value given as a limit tells only on which side of the number the result lay.

For orientation: IC50 means the point on the concentration scale where inhibition reaches its midpoint. A lower IC50 goes with inhibition by little substance. Usually inhibition in vivo stands for the relative decrease from the control value, in per cent. On Neutrophil elastase, `CC(C)[C@H](NC(=O)[C@@H]1CCCN1C(=O)[C@@H](NC(=O)COc1ccc(SCC(C)(C)C(=O)O)cc1)C(C)C)C(=O)c1nc2ccccc2o1` yielded an IC50 of 3.5 nM. Also, the inhibition in vivo at 100 mg/kg with Cricetinae gen. sp. [1] came out at 99%. Besides, the inhibition in vivo at 30 mg/kg in the assay with Cricetinae gen. sp. [2] worked out at 86%. Also, the inhibition in vivo at 10 mg/kg in the assay with Cricetinae gen. sp. [3] came out at 30%.
Consider `CC(C)[C@H](NC(=O)OCc1ccccc1)C(=O)c1nc2c(O)cccc2o1`, for which the IC50 against Neutrophil elastase is above 10000 nM.
With `CC(C)[C@H](NC(=O)[C@@H]1CCCN1C(=O)[C@@H](NC(=O)COc1ccc(OCC(=O)O)cc1)C(C)C)C(=O)c1nc2c(OC(=O)C(C)(C)C)cccc2o1`, on Neutrophil elastase, the midpoint of inhibition, the IC50, lay at 8.9 nM. In addition, in the assay with Cricetinae gen. sp. [4], the inhibition in vivo at 30 mg/kg is 73%. In the assay with Cricetinae gen. sp. [1], the inhibition in vivo at 100 mg/kg turned out to be 99%.
For `CCCCC(Oc1cccc2oc(C(=O)[C@@H](NC(=O)OCc3ccccc3)C(C)C)nc12)c1ccccc1` (stereo not given in full), the IC50 on Neutrophil elastase was above 10000 nM.
With `CC(C)CCOc1cccc2oc(C(=O)[C@@H](NC(=O)[C@H]3CCCN3C(=O)COc3ccc(OCC(=O)O)cc3)C(C)C)nc12`, half-maximal inhibition against Neutrophil elastase (IC50) required 290 nM. The inhibition in vivo at 30 mg/kg with Cricetinae gen. sp. [4] was -16%. In the assay with Cricetinae gen. sp. [1], the inhibition in vivo at 100 mg/kg amounted to 99%.
As to `CC(C)[C@H](NC(=O)OCc1ccccc1)C(=O)c1nc2c(OCC(N)=O)cccc2o1`, the IC50 against Neutrophil elastase was above 10000 nM.
As for `CC(C)[C@H](NC(=O)OCc1ccccc1)C(=O)c1nc2c(OCC(=O)O)cccc2o1`, the IC50 on Neutrophil elastase is above 10000 nM.
`CC(C)[C@H](NC(=O)[C@@H]1CCCN1C(=O)[C@@H](NC(=O)c1ccc(OCC(=O)O)cc1)C(C)C)C(=O)c1nc2ccccc2o1` yielded an IC50 at Neutrophil elastase of 7.4 nM. Besides, the inhibition in vivo at 30 mg/kg in the assay with Cricetinae gen. sp. [4] worked out at 60%. The inhibition in vivo at 10 mg/kg in the assay on Cricetinae gen. sp. [3] turned out to be 15%.
`CCOc1cccc2oc(C(=O)[C@@H](NC(=O)OCc3ccccc3)C(C)C)nc12` had a 50% inhibitory concentration (IC50) against Neutrophil elastase above 10000 nM.
`CC(C)[C@H](NC(=O)OCc1ccccc1)C(=O)c1nc2c(OCc3ccccc3)cccc2o1` had an IC50 against Neutrophil elastase above 10000 nM.
For `CC(C)[C@H](NC(=O)[C@@H]1CCCN1C(=O)[C@@H](NC(=O)COC(=O)c1ccc(OCC(=O)O)cc1)C(C)C)C(=O)c1nc2ccccc2o1`, the inhibition in vivo at 10 mg/kg in the assay with Cricetinae gen. sp. [5] came to 12%. On Neutrophil elastase, this compound registered an IC50 of 13 nM. For the same compound, the inhibition in vivo at 30 mg/kg with Cricetinae gen. sp. [4] amounted to 75%.
Consider `CC(C)[C@H](NC(=O)[C@@H]1CCCN1C(=O)[C@@H](NC(=O)COc1ccccc1OCC(=O)O)C(C)C)C(=O)c1nc2ccccc2o1`, for which the midpoint of inhibition at Neutrophil elastase, the IC50, lay at 7.2 nM. Besides, the inhibition in vivo at 30 mg/kg in the assay on Cricetinae gen. sp. [4] is 48%. The inhibition in vivo at 100 mg/kg in the assay with Cricetinae gen. sp. [1] was 90%. The inhibition in vivo at 10 mg/kg with Cricetinae gen. sp. [3] was found to be 37%.
`CCCCCOc1cccc2oc(C(=O)[C@@H](NC(=O)OCc3ccccc3)C(C)C)nc12` had an IC50 against Neutrophil elastase above 10000 nM.
As to `CC(C)[C@H](NC(=O)[C@@H]1CCCN1C(=O)[C@H](NC(=O)COc1ccc(OCC(=O)O)cc1)C(C)C)C(=O)c1nc2ccccc2o1`, in the assay on Cricetinae gen. sp. [4], the inhibition in vivo at 30 mg/kg is 56%. Also, in the assay on Cricetinae gen. sp. [1], the inhibition in vivo at 100 mg/kg worked out at 98%.
As to `CC(C)[C@H](NC(=O)[C@@H]1CCCN1C(=O)[C@@H](NC(=O)CNC(=O)c1ccc(OCC(=O)O)cc1)C(C)C)C(=O)c1nc2ccccc2o1`, the IC50 against Neutrophil elastase stood at 33 nM. In addition, the inhibition in vivo at 30 mg/kg in the assay with Cricetinae gen. sp. [2] stood at 99%. Moreover, the inhibition in vivo at 10 mg/kg in the assay with Cricetinae gen. sp. [6] was 46%.
`CC(C)[C@H](NC(=O)OCc1ccccc1)C(=O)c1nc2c(OCCN(C)C)cccc2o1` had an IC50 against Neutrophil elastase above 10000 nM.
The same measure, in the same setting: under `CC(C)[C@H](NC(=O)OCc1ccccc1)C(=O)c1nc2c(OC(=O)C(C)(C)C)cccc2o1` stands 450 nM; under `CC(C)=CCOc1cccc2oc(C(=O)[C@@H](NC(=O)OCc3ccccc3)C(C)C)nc12`, above 10000 nM; under `CC(C)[C@H](NC(=O)OCc1ccccc1)C(=O)c1nc2ccccc2o1`, above 10000 nM.
Regarding `CC(C)[C@H](NC(=O)COc1ccc(OCC(=O)O)cc1)C(=O)c1nc2c(OC(=O)C(C)(C)C)cccc2o1`, the midpoint of inhibition against Neutrophil elastase, the IC50, lay at 130 nM. In addition, the inhibition in vivo at 30 mg/kg in the assay with Cricetinae gen. sp. [4] was found to be 13%. In the assay with Cricetinae gen. sp. [1], the inhibition in vivo at 100 mg/kg was 74%.
For the compound `COC(=O)COc1cccc2oc(C(=O)[C@@H](NC(=O)OCc3ccccc3)C(C)C)nc12`, on Neutrophil elastase, the IC50 was above 10000 nM.
For the compound `CC(C)[C@H](NC(=O)OCc1ccccc1)C(=O)c1nc2c(OCc3cccc(C(F)(F)F)c3)cccc2o1`, at Neutrophil elastase, the IC50 is above 10000 nM.
On Neutrophil elastase, `CC(C)[C@H](NC(=O)[C@@H]1CCCN1C(=O)[C@@H](NC(=O)/C=C/C(=O)O)C(C)C)C(=O)c1nc2ccccc2o1` yielded an IC50 of 72 nM.
With `CC(C)[C@H](NC(=O)[C@@H]1CCCN1C(=O)[C@@H](NC(=O)N[C@H](C)C(=O)O)C(C)C)C(=O)c1nc2ccccc2o1`, the IC50 against Neutrophil elastase was 280 nM. Moreover, in the assay on Cricetinae gen. sp. [4], the inhibition in vivo at 30 mg/kg came to 39%.
Compound `CC(C)CCOc1cccc2oc(C(=O)[C@@H](NC(=O)OCc3ccccc3)C(C)C)nc12` had an IC50 at Neutrophil elastase of 7800 nM.
The compound `CC(C)[C@H](NC(=O)[C@@H]1CCCN1C(=O)[C@@H](NC(=O)CCC(=O)O)C(C)C)C(=O)c1nc2ccccc2o1` had an IC50 on Neutrophil elastase of 66 nM. For the same compound, in the assay with Cricetinae gen. sp. [4], the inhibition in vivo at 30 mg/kg stood at 61%.
With `CC(C)[C@H](NC(=O)[C@H]1CCCN1C(=O)COc1ccc(OCC(=O)O)cc1)C(=O)c1nc2c(OC(=O)C(C)(C)C)cccc2o1`, half-maximal inhibition against Neutrophil elastase (IC50) was put at 230 nM. Further, in the assay on Cricetinae gen. sp. [4], the inhibition in vivo at 30 mg/kg was 66%. Further, the inhibition in vivo at 100 mg/kg with Cricetinae gen. sp. [1] was 96%.

For the origin of these results see ChEMBL document CHEMBL1135060, “Design and synthesis of peptide-based carboxylic acid-containing transition-state inhibitors of human neutrophil elastase” (Bioorg Med Chem Lett, 2002).
